In ChEMBL document CHEMBL5584329, “Development of new dehydrocostuslactone derivatives for treatment of atopic dermatitis via inhibition of the NF-κB signaling pathway” (RSC Med Chem, 2024):
pIC50: −log10 of the molar value. Activity calls are given as the source filed them. The rule behind the calls is not given here.

Assays:
[1] = Cytotoxicity against mouse RAW264.7 cells assessed as inhibition of cell viability at 20 uM by MTT assay relative to control; assay type: toxicity, cell-based; settings: read-out: INH
RAW264.7 [2] = test: Inhibition of LPS-induced NO production in mouse RAW264.7 cells at 20 uM preincubated for 2 hrs followed by LPS addition and measured after 24 hrs by Griess assay relative to control; assay type: functional; settings: time 26 hrs
RAW264.7 [3] = test: Inhibition of LPS-induced NO production in mouse RAW264.7 cells preincubated for 2 hrs followed by LPS addition and measured after 24 hrs by Griess assay relative to control; assay type: functional, cell-based
[4] = Cytotoxicity against mouse RAW264.7 cells assessed as inhibition of cell viability by MTT assay relative to control; assay type: toxicity, cell-based
[5] = target: T1, Inhibitor of nuclear factor kappa-B kinase subunit alpha (Mus musculus) (UniProt Q60680); test: Inhibition of IkappaB-alpha phosphorylation in LPS induced mouse RAW264.7 cells preincubated for 2 hrs followed by LPS addition and measured after 24 hrs by Western blot analysis; assay type: cell-based; settings: dose 2.5-10 µmol, time 26.0 hrs
T1 sequence (whole entry): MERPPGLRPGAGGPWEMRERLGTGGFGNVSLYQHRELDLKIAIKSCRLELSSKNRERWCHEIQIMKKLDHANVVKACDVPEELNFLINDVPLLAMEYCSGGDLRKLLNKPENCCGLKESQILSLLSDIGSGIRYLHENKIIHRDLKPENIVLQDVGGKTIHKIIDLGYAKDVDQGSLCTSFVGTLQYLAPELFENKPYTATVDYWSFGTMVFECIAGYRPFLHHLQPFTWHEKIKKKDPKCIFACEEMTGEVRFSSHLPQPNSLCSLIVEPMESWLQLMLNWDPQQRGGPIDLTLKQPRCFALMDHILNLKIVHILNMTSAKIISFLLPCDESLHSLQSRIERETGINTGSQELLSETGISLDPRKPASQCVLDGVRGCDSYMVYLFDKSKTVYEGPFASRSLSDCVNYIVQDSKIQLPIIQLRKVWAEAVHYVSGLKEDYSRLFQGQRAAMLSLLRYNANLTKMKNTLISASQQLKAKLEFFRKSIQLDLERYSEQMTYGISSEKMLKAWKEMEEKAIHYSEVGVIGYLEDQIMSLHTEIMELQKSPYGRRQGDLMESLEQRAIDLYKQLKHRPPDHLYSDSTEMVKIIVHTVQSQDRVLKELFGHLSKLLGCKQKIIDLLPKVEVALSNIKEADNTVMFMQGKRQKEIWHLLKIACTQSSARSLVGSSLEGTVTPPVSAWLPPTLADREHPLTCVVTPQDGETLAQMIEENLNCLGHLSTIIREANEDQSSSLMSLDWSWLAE

Mus musculus [6] = test: Antiinflammatory activity against MC093-induced atopic dermatitis BALB/c mouse model assessed as reduction in IL-13 level in serum at 50 to 100 mg/kg, IG administered starting from day 4 to 10 after MC093-stimulation; assay type: functional, organism-based; settings: dose 50-100 mg/kg, time 7.0 day
Mus musculus [7] = test: In vivo inhibition of NFkappaB signalling pathway in IG dosed MC093-induced atopic dermatitis BALB/c mouse model assessed as reduction in IkappaB-alpha phosphorylation level in ear skin starting from day 4 to 10 after MC093-stimulation by Western blot analysis; assay type: functional, organism-based; settings: dose 50-100 mg/kg, time 7.0 day
[8] = target: Transcription factor p65 (Mus musculus) (UniProt Q04207); test: Inhibition of P65 phosphorylation in LPS induced mouse RAW264.7 cells preincubated for 2 hrs followed by LPS addition and measured after 24 hrs by Western blot analysis; assay type: cell-based; settings: dose 2.5-10 µmol, time 26.0 hrs
Mus musculus [9] = test: In vivo inhibition of MAPK signalling pathway in MC093-induced atopic dermatitis BALB/c mouse model assessed as reduction in p-ERK/ERK ratio in ear skin at 50 to 100 mg/kg, IG administered starting from day 4 to 10 after MC093-stimulation by Western blot analysis; assay type: functional, organism-based; settings: dose 50-100 mg/kg, time 7.0 day
Mus musculus [10] = test: In vivo inhibition of NFkappaB signalling pathway in IG dosed MC093-induced atopic dermatitis BALB/c mouse model assessed as reduction in P65 phosphorylation level in ear skin starting from day 4 to 10 after MC093-stimulation by Western blot analysis; assay type: functional, organism-based; settings: dose 50-100 mg/kg, time 7.0 day
Mus musculus [11] = test: Antiinflammatory activity against MC093-induced atopic dermatitis BALB/c mouse model assessed as reduction in weight of ear at 50 to 100 mg/kg, IG administered starting from day 4 to 10 after MC093-stimulation; assay type: functional, organism-based; settings: dose 50-100 mg/kg, time 7.0 day
[12] = target: MAP kinase p38 (Mus musculus) (UniProt P47811+O08911+Q9WUI1+Q9Z1B7); test: Inhibition of P38 phosphorylation in LPS-induced mouse RAW264.7 cells preincubated for 2 hrs followed by LPS addition and measured after 24 hrs by Western blot analysis; assay type: cell-based; settings: dose 2.5-10 µmol, time 26.0 hrs
Mus musculus [13] = test: Antiinflammatory activity against MC093-induced atopic dermatitis BALB/c mouse model assessed as reduction in IL-5 level in serum at 50 to 100 mg/kg, IG administered starting from day 4 to 10 after MC093-stimulation; assay type: functional, organism-based; settings: dose 50-100 mg/kg, time 7.0 day
Mus musculus [14] = test: In vivo inhibition of MAPK signalling pathway in MC093-induced atopic dermatitis BALB/c mouse model assessed as reduction in p-JNK/JNK ratio in ear skin at 50 to 100 mg/kg, IG administered starting from day 4 to 10 after MC093-stimulation by Western blot analysis; assay type: functional, organism-based; settings: dose 50-100 mg/kg, time 7.0 day
Mus musculus [15] = test: In vivo inhibition of MAPK signalling pathway in MC093-induced atopic dermatitis BALB/c mouse model assessed as reduction in p-P38/P38 ratio in ear skin at 50 to 100 mg/kg, IG administered starting from day 4 to 10 after MC093-stimulation by Western blot analysis; assay type: functional, organism-based; settings: dose 50-100 mg/kg, time 7.0 day
Mus musculus [16] = test: Antiinflammatory activity against MC093-induced atopic dermatitis BALB/c mouse model assessed as reduction in epidermal thickness of ear at 50 to 100 mg/kg, IG administered starting from day 4 to 10 after MC093-stimulation by H and E staining assay; assay type: functional, organism-based; settings: dose 50-100 mg/kg, time 7.0 day
Mus musculus [17] = test: Antiinflammatory activity against MC093-induced atopic dermatitis BALB/c mouse model assessed as reduction in TSLP level in serum at 50 to 100 mg/kg, IG administered starting from day 4 to 10 after MC093-stimulation; assay type: functional, organism-based; settings: dose 50-100 mg/kg, time 7.0 day
Mus musculus [18] = test: Antiinflammatory activity against MC093-induced atopic dermatitis BALB/c mouse model assessed as reduction in HIS level in serum at 50 to 100 mg/kg, IG administered starting from day 4 to 10 after MC093-stimulation; assay type: functional, organism-based; settings: dose 50-100 mg/kg, time 7.0 day
Mus musculus [19] = test: Antiinflammatory activity against MC093-induced atopic dermatitis BALB/c mouse model assessed as reduction in inflammatory cell infiltration in ear at 50 to 100 mg/kg, IG administered starting from day 4 to 10 after MC093-stimulation by H and E staining assay; assay type: functional, organism-based; settings: dose 50-100 mg/kg, time 7.0 day
Mus musculus [20] = test: In vivo inhibition of […] signalling pathway in MC093-induced atopic dermatitis BALB/c mouse model assessed as reduction in P65 phosphorylation level in ear skin at 50 to 100 mg/kg, IG administered starting from day 4 to 10 after MC093-stimulation by immunohistochemistry analysis; assay type: functional, organism-based; settings: dose 50-100 mg/kg, time 7.0 day
Mus musculus [21] = test: Antiinflammatory activity against MC093-induced atopic dermatitis BALB/c mouse model assessed as reduction in number of scratches at 50 to 100 mg/kg, IG administered starting from day 4 to 10 and measured after 30 mins of MC093-stimulation; assay type: functional, organism-based; settings: dose 50-100 mg/kg, time 7.0 day
Mus musculus [22] = test: Antiinflammatory activity against MC093-induced atopic dermatitis BALB/c mouse model assessed as reduction in IL-33 level in serum at 50 to 100 mg/kg, IG administered starting from day 4 to 10 after MC093-stimulation; assay type: functional, organism-based; settings: dose 50-100 mg/kg, time 7.0 day
Mus musculus [23] = test: Antiinflammatory activity against MC093-induced atopic dermatitis BALB/c mouse model assessed as reduction in IL-4 level in serum at 50 to 100 mg/kg, IG administered starting from day 4 to 10 after MC093-stimulation; assay type: functional, organism-based; settings: dose 50-100 mg/kg, time 7.0 day
Mus musculus [24] = test: Antiinflammatory activity against MC093-induced atopic dermatitis BALB/c mouse model assessed as reduction in ear swelling at 50 to 100 mg/kg, IG administered starting from day 4 to 10 after MC093-stimulation; assay type: functional, organism-based; settings: dose 50-100 mg/kg, time 7.0 day
Mus musculus [25] = test: Antiinflammatory activity against MC093-induced atopic dermatitis BALB/c mouse model assessed as reduction in IgE level in serum at 50 to 100 mg/kg, IG administered starting from day 4 to 10 after MC093-stimulation; assay type: functional, organism-based; settings: dose 50-100 mg/kg, time 7.0 day
Mus musculus [26] = test: Antiinflammatory activity against MC093-induced atopic dermatitis BALB/c mouse model assessed as reduction in scratching latency at 50 to 100 mg/kg, IG administered starting from day 4 to 10 and measured after 30 mins of MC093-stimulation; assay type: functional, organism-based; settings: dose 50-100 mg/kg, time 7.0 day
Mus musculus [27] = test: In vivo inhibition of […] signalling pathway in MC093-induced atopic dermatitis BALB/c mouse model assessed as reduction in IkappaB-alpha phosphorylation level in ear skin at 50 to 100 mg/kg, IG administered starting from day 4 to 10 after MC093-stimulation by immunohistochemistry analysis; assay type: functional, organism-based; settings: dose 50-100 mg/kg, time 7.0 day

Sequence of Transcription factor p65 (Mus musculus) (Q04207 whole entry): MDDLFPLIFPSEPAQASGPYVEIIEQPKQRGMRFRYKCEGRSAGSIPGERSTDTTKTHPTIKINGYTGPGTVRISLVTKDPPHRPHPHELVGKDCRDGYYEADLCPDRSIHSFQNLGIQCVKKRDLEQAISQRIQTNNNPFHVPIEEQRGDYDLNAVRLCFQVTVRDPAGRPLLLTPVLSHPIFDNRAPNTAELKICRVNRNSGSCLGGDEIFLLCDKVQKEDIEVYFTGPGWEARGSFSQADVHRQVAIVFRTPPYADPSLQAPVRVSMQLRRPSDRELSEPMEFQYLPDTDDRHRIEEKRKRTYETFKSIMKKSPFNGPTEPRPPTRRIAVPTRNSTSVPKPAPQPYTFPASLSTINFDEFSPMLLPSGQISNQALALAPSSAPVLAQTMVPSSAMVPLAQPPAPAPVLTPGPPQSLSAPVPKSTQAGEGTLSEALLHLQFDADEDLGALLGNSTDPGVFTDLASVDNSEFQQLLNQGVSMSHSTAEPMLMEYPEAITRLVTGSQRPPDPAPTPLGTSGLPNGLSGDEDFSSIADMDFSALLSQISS

Compound: C=C1CC[C@H]2C(=C)CC[C@H]3C(CN(CCNS(=O)(=O)c4ccc(F)cc4)S(=O)(=O)c4ccc(F)cc4)C(=O)O[C@@H]3[C@@H]12 (stereo partly drawn)
- cytotoxicity at 20 µM [1]: 9.81%
- inhibition at 20 µM (RAW264.7 [2]): 75.1%
- pIC50 (RAW264.7 [3]): 4.82
- pIC50 [4]: < 4.40

Compound: C=C1CC[C@H]2C(=C)CC[C@H]3C(CNCCNS(=O)(=O)C4CC4)C(=O)O[C@@H]3[C@@H]12 (stereo partly drawn)
- cytotoxicity at 20 µM [1]: 12.2%
- inhibition at 20 µM (RAW264.7 [2]): 85.4%
- pIC50 (RAW264.7 [3]): 5.29
- pIC50 [4]: < 4.40

Compound: C=C1CC[C@H]2C(=C)CC[C@H]3C(CN(CCNS(=O)(=O)c4ccc(C)cc4)S(=O)(=O)c4ccc(C)cc4)C(=O)O[C@@H]3[C@@H]12 (stereo partly drawn)
- cytotoxicity at 20 µM [1]: 14.8%
- inhibition at 20 µM (RAW264.7 [2]): 82.5%
- pIC50 (RAW264.7 [3]): 5.11
- pIC50 [4]: < 4.40

Compound: C=C1CC[C@H]2C(=C)CC[C@H]3C(CNCCNCc4cc(Cl)cc(Cl)c4O)C(=O)O[C@@H]3[C@@H]12 (stereo partly drawn)
- cytotoxicity at 20 µM [1]: 8.94%
- inhibition at 20 µM (RAW264.7 [2]): 51.5%
- pIC50 (RAW264.7 [3]): 4.71
- pIC50 [4]: < 4.40

Compound: C=C1CC[C@H]2C(=C)CC[C@H]3C(CNCCNCc4cc(Cl)ccc4O)C(=O)O[C@@H]3[C@@H]12 (stereo partly drawn)
- cytotoxicity at 20 µM [1]: 16.7%
- inhibition at 20 µM (RAW264.7 [2]): 34.1%

Compound: C=C1CC[C@H]2C(=C)CC[C@H]3C(CN(CCNS(=O)(=O)c4ccc(C(F)(F)F)cc4)S(=O)(=O)c4ccc(C(F)(F)F)cc4)C(=O)O[C@@H]3[C@@H]12 (stereo partly drawn)
- inhibition [5]: Dose-Dependent Effect
- Activity (Mus musculus [6]): Active
- cytotoxicity at 20 µM [1]: -6.84%
- inhibition (Mus musculus [7]): Dose-Dependent Effect
- inhibition [8]: Dose-Dependent Effect
- inhibition (Mus musculus [9]): inactive
- inhibition (Mus musculus [10]): Dose-Dependent Effect
- Activity (Mus musculus [11]): Active
- inhibition [12]: Dose-Dependent Effect
- Activity (Mus musculus [13]): Active
- inhibition at 20 µM (RAW264.7 [2]): 85.1%
- inhibition (Mus musculus [14]): inactive
- inhibition (Mus musculus [15]): inactive
- Activity (Mus musculus [16]): Active
- Activity (Mus musculus [17]): Active
- Activity (Mus musculus [18]): inactive
- Activity (Mus musculus [19]): Active
- inhibition (Mus musculus [20]): Active
- Activity (Mus musculus [21]): Active
- Activity (Mus musculus [22]): Active
- Activity (Mus musculus [23]): Active
- Activity (Mus musculus [24]): Active
- Activity (Mus musculus [25]): Active
- pIC50 (RAW264.7 [3]): 5.68
- Activity (Mus musculus [26]): Active
- inhibition (Mus musculus [27]): Active
- pIC50 [4]: < 4.40

Compound: C=C1CC[C@H]2C(=C)CC[C@H]3C(CN(CCNS(=O)(=O)c4ccc(OC(F)(F)F)cc4)S(=O)(=O)c4ccc(OC(F)(F)F)cc4)C(=O)O[C@@H]3[C@@H]12 (stereo partly drawn)
- cytotoxicity at 20 µM [1]: 13.6%
- inhibition at 20 µM (RAW264.7 [2]): 84%
- pIC50 (RAW264.7 [3]): 5.37
- pIC50 [4]: < 4.40

Compound: C=C1CC[C@H]2C(=C)CC[C@H]3C(CNCCNCc4cc([N+](=O)[O-])ccc4O)C(=O)O[C@@H]3[C@@H]12 (stereo partly drawn)
- cytotoxicity at 20 µM [1]: 24.7%
- inhibition at 20 µM (RAW264.7 [2]): 68.4%
- pIC50 (RAW264.7 [3]): 4.99
- pIC50 [4]: < 4.40
